A word on the EC50: it is the concentration that produces a half-maximal response. Read a low EC50 as an effect from little substance. By Kd is commonly meant the concentration at which binding is half-saturated. Lower therefore signals a tighter complex. In general, IC50 refers to the midpoint of a concentration-inhibition curve. Low readings indicate inhibition by little substance, high ones a need for much substance.

The values that follow come from ChEMBL document CHEMBL1817598, “Design, synthesis and biological evaluation of a simplified fluorescently labeled discodermolide as a molecular probe to study the binding of discodermolide to tubulin” (Bioorg Med Chem, 2011).

A short description of assay [1]: Effect on bovine brain tubulin assembly by spectrophotometry. Also on record: species or system Bos taurus.
The nature of assay [2]: Binding affinity to microtubule by spectrofluorometry.
The subject of assay [3] is A2780. Description: Ratio of compound IC50 to Paclitaxel IC50 for human A2780 cells. It is filed as functional.
In assay [4] the test system is A2780. Nature of the assay: Cytotoxicity against human A2780 cells after 2 days by Alamar blue assay. It is filed as functional, cell-based. The note with it: A2780, 48 h. For orientation: The colour change of resazurin is a common sign of viable cells or microbes.

For `CC(=O)O[C@H]1C(=O)[C@@]2(C)[C@H]([C@H](OC(=O)c3ccccc3)[C@]3(O)C[C@H](OC(=O)[C@H](O)[C@@H](NC(=O)c4ccccc4)c4ccccc4)C(C)=C1C3(C)C)[C@]1(OC(C)=O)CO[C@@H]1C[C@@H]2O` [PACLITAXEL], the EC50 in assay [1] was found to be 0.49 µM. Moreover, in assay [2], the affinity, expressed as Kd, was 0.015 µM.

In assay [1], `CCCC[C@H](C)[C@H](OC(N)=O)[C@@H](C)[C@H](O)[C@@H](C)C/C(C)=C\[C@H](C)[C@@H](O)[C@@H](C)/C=C\[C@@H](O)CCOC(=O)c1cccc(N(C)C)c1` had an EC50 of 5.2 µM. For the same compound, the Ratio IC50 with A2780 [3] came out at 386. Moreover, the Kd in assay [2] is 24 µM. In the assay with A2780 [4], this compound registered an IC50 of 5.4 µM.
